Experiments:
[1] = test system: platelets in sample blood / platelet poor blood; assay: Rheometer (free damped oscillation type) measurement of viscoelasticity change / coagulation time; type: cell-based, human
Procedure: By using an evacuated blood collection tube treated with use of sodium citrate as an anticoagulant, blood was collected from the healthy person and the patient with thrombocytopenia (the number of platelets in 1 μL of blood was 1.2×10^4) as a whole blood sample. Furthermore, blood cells and platelets were separated from the whole blood sample to prepare platelet poor plasma. The sample blood was centrifuged under a condition of 500 G and five minutes to be separated into blood cells and platelet rich plasma (PRP). The plasma was centrifuged under a condition of 2000 G and 30 minutes and sedimentation of the platelets was caused to obtain the platelet poor plasma (PPP). Measurement was performed by using a rheometer of the free damped oscillation type. The coagulation time was obtained by observing a change in the viscoelasticity and compared with the result by the dielectric measurement.

[2] = test system: platelets in sample blood (whole blood); assay: Dielectric measurement (complex permittivity) of blood coagulation with platelet activating agent; type: cell-based, human; settings: frequency 10.7 MHz
Procedure: By using an evacuated blood collection tube treated with use of sodium citrate as an anticoagulant, blood was collected from the healthy person and the patient with thrombocytopenia (the number of platelets in 1 μL of blood was 1.2×10^4) as a whole blood sample. Next, 0.25 M of a calcium chloride aqueous solution was added (85 μL per 1 mL of blood) to the sample blood whose temperature was kept at 37° C. and a blood coagulation reaction was started. The platelet activating agent (ADP) was so added as to be mixed in the calcium chloride aqueous solution (10 μM per 1 mL of blood). Immediately after the start of the blood coagulation reaction, measurement was performed for 60 minutes by using an impedance analyzer (Agilent Corporation, 4294A) under the following condition: temperature was 37° C.; frequency range was 40 Hz to 110 MHz; and measurement time interval was one minute.

## Nc1ncnc2c1ncn2[C@@H]1O[C@H](COP(=O)(O)OP(=O)(O)O)[C@@H](O)[C@H]1O [ADP, adenosine diphosphate]
[1]; platelet poor blood (cleaned red blood cells added to platelet poor plasma)
  change of coagulation time due to ADP addition (rheometer): not observed
[1]; sample blood of the healthy person
  change of coagulation time due to ADP addition (rheometer): shortening of the coagulation time
[2]; sample blood of patient with thrombocytopenia (1.2×10^4 platelets in 1 μL), ADP added
  coagulation time with ADP addition: 38 min
[2]; sample blood of patient with thrombocytopenia
  change of coagulation time due to ADP addition (dielectric measurement): shortening of the coagulation time was found
[2]; sample blood of plural healthy persons, ADP 10 μM per 1 mL of blood in calcium chloride solution, 37° C., without ADP 31 minutes
  average of the coagulation time when the ADP was added: 17 min
[2]; sample blood of plural healthy persons
  change of coagulation time due to ADP addition (dielectric measurement): shortening of the coagulation time
